According to patent US6369003B1, “Process and composition for soil improvement by reducing microbially formed ethylene in the soil” (BASF Aktiengesellschaft, priority 1994, dated 2002):

Legend:
[1] = test system: Lucerne plants (Maricopa); test: Lucerne: root nodules and shoot biomass, greenhouse; format: in vivo, Medicago sativa; conditions: 25 days after treatment; for Root nodules: untreated 10.5; for Dry matter shoot: untreated 180
Method: (§1) In these tests various types of non-sterile soils were used. The cultivation of the plants was carried out under greenhouse or climatic chamber conditions. The active compounds according to the invention were applied uniformly distributed over the soil surface in an aqueous preparation after the emergence of the respective test plants. The supply of water for the plants was carrried out using the same technique, always paying attention to uniform moistness of the soil. In the case of the cultivation of legumes, defined amounts of species-specific Rhizobia were admixed to the soil. In some cases inoculation was also carried out by seed treatment.
Lucerne plants (Maricopa) were cultivated under greenhouse conditions in low N, sandy loam soil in plastic pots (750 ml) and watered from above as required. A few days after emergence the plants were thinned out to 3 plants per pot.
In 5 pots in each case 25 ml of an aqueous preparation of one concentration of 2.3.1.3 were applied by watering. 5 pots remained untreated.
25 days after treatment the following results were obtained: […]

[2] = test system: Soybean plants (Delta Pine 415); test: Soybeans test 3b: root nodules, greenhouse; format: in vivo, Glycine max; conditions: untreated 47
Method: as §1
a) Soybean plants (Delta Pine 415) were cultivated under greenhouse conditions in low N Limburgerhof soil in plastic pots (500 ml) and watered from above as required. A few days after emergence the plants were thinned out to 5 plants per pot.
In 8 pots in each case per test member an aqueous active compound solution of 2.3.1.3 was applied by watering. 16 pots remained untreated in each case.
b) Test procedure as in 3 a) active compound 2.3.1.3

[3] = test system: Peas (Kleine Rheinländerin); test: Peas test 2b: biomass and root nodules, greenhouse; format: in vivo, Pisum sativum; conditions: 12 days after treatment; for Dry matter (shoot + root): control 2.55; for Nodules: control 20
Method: as §1
b) Peas (Kleine Rheinländerin) were cultivated under greenhouse conditions in low N Limburgerhof soil in plastic pots (500 ml) and watered from above as required (constant weight). A few days after emergence the plants were thinned out to 5 plants per pot.
In four pots in each case aqueous active compound solutions of one concentration of 2.3.1.3 were applied by watering. Four pots remained untreated.
12 days after treatment the following results were obtained: […]

[4] = test system: Groudnuts of the variety Florigiant; test: Field test: seed yield and seed quality in groundnuts; format: in vivo, Arachis hypogaea; conditions: for Seeds of the highest quality level: relative, untreated = 100 (38.0 %); for Yield of groundnuts: untreated = 100 (45.4 dt/ha)
Method: The tests a) and b) were carried out under conditions like those in practice in 1993 on the field test site of BASF Corporation in Holly Springs, N.C., USA. This location is distinguished by a medium-heavy soil (sandy loam). Groudnuts of the variety Florigiant were used. Treatment was carried out 20, 27 and 34 days after emergence of the plants. For treatment, the soil between the rows was sprayed with an aqueous preparation of the active compound 2.3.1.3. Immediately after application the active compound was washed into the soil by spray irrigation with 20 mm of water. The spray irrigation was also used to wash off active compound which had possibly reached the leaves. Harvesting of the plants at full maturity gave the following results: […]

rape (Petranova) = test: Promotion of shoot growth of rape, greenhouse; format: in vivo; conditions: applied by watering 10 days after sowing; 3 weeks after treatment
Method: as §1
(§2) Wheat (Ralle) and rape (Petranova) plants were cultured under greenhouse conditions in low N Limburgerhof soil in plastic pots (500 ml) and watered from above as required. The water content of the soil here was about 80% of the maximum water capacity. A few days after emergence the plants were thinned out to 40 plants per pot.
(§3) 10 days after sowing aqueous preparations of 2.3.1.3 were applied by watering to 8 pots per test series in each case. 16 pots in each case remained untreated. 3 weeks after treatment the fresh shoot weight of the plants was determined.

Peas (Field Peas VNS) = test: Peas test 2c: root nodules, root and shoot biomass, greenhouse; format: in vivo, Pisum sativum; conditions: 30 days after treatment; for Nodules: untreated 6.1; for Dry matter root: untreated 275; for Dry matter shoot: untreated 459
Method: as §1, with “treatment. c) Peas (Field Peas VNS) were cultivated under greenhouse conditions in low N, sandy loam soil in plastic pots (750 ml) and watered from above as required. A few days after emergence the plants were thinned out to 7 plants per pot. In 5 pots in each case 25 ml each of an aqueous preparation of one concentration of 2.3.1.3 were applied by watering. 5 pots remained untreated. 30 days after treatment the following results were obtained: […]” for “treatment.”

Wheat (Ralle) = test: Promotion of shoot growth of wheat, greenhouse; format: in vivo; conditions: applied by watering 10 days after sowing; 3 weeks after treatment
Method: as §1, §2, §3

[5] = 10 g/ha of a.s., treated 20 days after emergence
[6] = 10 g/ha of a.s., treated 27 days after emergence
[7] = 10 g/ha of a.s., treated 34 days after emergence
[8] = 100 g/ha of a.s., treated 20 days after emergence
[9] = 100 g/ha of a.s., treated 27 days after emergence
[10] = 100 g/ha of a.s., treated 34 days after emergence
[11] = 1000 g/ha of a.s., treated 20 days after emergence
[12] = 1000 g/ha of a.s., treated 27 days after emergence
[13] = 1000 g/ha of a.s., treated 34 days after emergence

COC(=O)COC(=O)CON=C(C)C [active compound 2.3.1.3]
Root nodules ([1]; 30 g of a.s./ha): 10.7 number/plant
Dry matter shoot ([1]; 30 g of a.s./ha): 300 mg/plant
Root nodules ([1]; 300 g of a.s./ha): 10.3 number/plant
Dry matter shoot ([1]; 300 g of a.s./ha): 240 mg/plant
Nodules ([2]; 0.003 mg of a.s./pot; procedure as in 3 a)): 72 number/pot
Nodules ([2]; 0.030 mg of a.s./pot; procedure as in 3 a)): 83 number/pot
Nodules ([2]; 0.300 mg of a.s./pot; procedure as in 3 a)): 69 number/pot
Dry matter (shoot + root) ([3]; 0.001 mg/pot): 2.65 g/pot
Nodules ([3]; 0.001 mg/pot): 31 number/pot
Dry matter (shoot + root) ([3]; 0.003 mg/pot): 3.07 g/pot
Nodules ([3]; 0.003 mg/pot): 68 number/pot
Dry matter (shoot + root) ([3]; 0.010 mg/pot): 3.00 g/pot
Nodules ([3]; 0.010 mg/pot): 66 number/pot
Dry matter (shoot + root) ([3]; 0.030 mg/pot (insect attack)): 2.32 g/pot
Nodules ([3]; 0.030 mg/pot (insect attack)): 30 number/pot
Dry matter (shoot + root) ([3]; 0.100 mg/pot): 2.52 g/pot
Nodules ([3]; 0.100 mg/pot): 59 number/pot
Dry matter (shoot + root) ([3]; 0.300 mg/pot): 3.13 g/pot
Nodules ([3]; 0.300 mg/pot): 76 number/pot
Seeds of the highest quality level [4, 5]: 124%
Yield of groundnuts [4, 5]: 108%
Seeds of the highest quality level [4, 6]: 121%
Yield of groundnuts [4, 6]: 109%
Seeds of the highest quality level [4, 7]: 113%
Yield of groundnuts [4, 7]: 124%
Seeds of the highest quality level [4, 8]: 95%
Yield of groundnuts [4, 8]: 121%
Seeds of the highest quality level [4, 9]: 113%
Yield of groundnuts [4, 9]: 104%
Seeds of the highest quality level [4, 10]: 84%
Yield of groundnuts [4, 10]: 121%
Seeds of the highest quality level [4, 11]: 103%
Yield of groundnuts [4, 11]: 113%
Seeds of the highest quality level [4, 12]: 113%
Yield of groundnuts [4, 12]: 120%
Seeds of the highest quality level [4, 13]: 108%
Yield of groundnuts [4, 13]: 113%
shoot growth (fresh shoot weight) (rape (Petranova)): shoot growth was promoted in nearly all cases
Nodules (Peas (Field Peas VNS); 3 g of a.s./ha): 41.5 number/plant
Dry matter root (Peas (Field Peas VNS); 3 g of a.s./ha): 849 mg/plant
Dry matter shoot (Peas (Field Peas VNS); 3 g of a.s./ha): 1064 mg/plant
Nodules (Peas (Field Peas VNS); 30 g of a.s./ha): 39.4 number/plant
Dry matter root (Peas (Field Peas VNS); 30 g of a.s./ha): 704 mg/plant
Dry matter shoot (Peas (Field Peas VNS); 30 g of a.s./ha): 795 mg/plant
Nodules (Peas (Field Peas VNS); 300 g of a.s./ha): 56.1 number/plant
Dry matter root (Peas (Field Peas VNS); 300 g of a.s./ha): 945 mg/plant
Dry matter shoot (Peas (Field Peas VNS); 300 g of a.s./ha): 1209 mg/plant
shoot growth (fresh shoot weight) (Wheat (Ralle)): shoot growth was promoted in nearly all cases
